For one assay, the system named is E. coli. The assay can be described thus: MIC by Etest on Mueller-Hinton agar (Example 1). The class given is cell-based, Escherichia coli. The settings on record: for MIC: Escherichia coli. The procedure: Prior to performing the method of the invention, susceptibility testings were performed by determining Minimum Inhibitory Concentration (MIC) values by the Etest® (AB bioMérieux; Solna, Sweden) on Mueller-Hinton agar plates at 37° C. and results of susceptibility testing were recorded according to the Clinical and Laboratory Standards Institute (CLSI) guidelines as modified in June 2010 (18). The breakpoints for imipenem are S≦1 μg/ml (susceptibility) and R≧4 μg/ml (resistant). As for those for ertapenem, they are S≦0.25 μg/ml and R≧1 μg/ml (see Tables 1 and 2).

A further assay deals with P. stuartii. Nature of the assay: MIC of carbapenem by Etest (Example 2). The class given is cell-based, Providencia stuartii. To be noted: P. stuartii NDM-1, n=1. The procedure: All strains had previously been characterized for their β-lactamase content at the molecular level. Minimum inhibitory concentration of carbapenem were determined using the Etest® (AB bioMérieux, Solna, Sweden) and results were recorded according to US guidelines (CLSI), as updated in 2011.

The subject of another assay is P. stutzeri. Nature of the assay: Susceptibility testing by Etest on Mueller-Hinton agar (Example 3). To be noted: Stutzerimonas stutzeri. The format is cell-based. The procedure:
(§1) Susceptibility testing was performed using the Etest® (bioMérieux; La Balmes-les-Grottes, France) on Mueller-Hinton agar plates (Becton Dickinson, Le Pont de Chaix, France) at 37° C. and results were recorded according to US guidelines (CLSI), as updated in 2012. The breakpoints for imipenem, meropenem and doripenem are as follows; susceptibility (S)≦2, and resistance (R)≧8 μg/ml.

The test system of another assay is P. putida. The assay is described as above. The format is cell-based. The settings on record: Pseudomonas putida. The procedure:
as §1

A further assay relates to P. fluorescens. The assay is described as above. The format is cell-based. To be noted: Pseudomonas fluorescens. The procedure: as §1
Setting [1] is: E. coli Ec13 SYD (23), plasmid mediated cephalosporinase CMY-2.
The mark [2] stands for this setting: E. coli VMC (24), plasmid mediated cephalosporinase CMY-10.
[3] abbreviates: E. coli 271 AUS (12), NDM-1 + CTX-M-15 + TEM-1.
[4] abbreviates: E. coli 5649 GEN, NDM-1 + OXA-1 + CMY-30 + TEM-1.
The mark [5] stands for this setting: E. coli ALL, NDM-1 + OXA-1 + OXA-2 + CTX-M-15 + TEM-1.
Where [6] appears, read: E. coli MAD (14), VIM-1 + CTX-M-3.
The mark [7] stands for this setting: E. coli RIC, NDM-1 + OXA-1 + OXA-10 + CMY-16.

Consider two molecules from patent publication US9340819B2, “Method for detecting the presence of carbapenemase-producing bacteria in a sample” (priority 2011, dated 2016).

What is called MIC is the lowest concentration that inhibits growth of the organism.

Each structure is given as a SMILES string. Converted amounts (≈) assume the structure as drawn.

Consider `C[C@@H](O)[C@H]1C(=O)N2C(C(=O)O)=C(S[C@@H]3CN[C@H](C(=O)Nc4cccc(C(=O)O)c4)C3)[C@H](C)[C@H]12` [ERT, ertapenem], for which the MICs in the assay with E. coli (setting [1]) stood at 0.06 µg/mL; in the assay on E. coli (E. coli J53 (29), wild-type), 0.06 µg/mL; with E. coli (setting [2]) it was 0.06 µg/mL. In addition, the MIC is 8 µg/mL with E. coli (setting [3]); 32 µg/mL with E. coli (setting [4]); 0.06 µg/mL (≈ 0.126 µM) in the assay on E. coli (E. coli (18), ESBL CTX-M-14); 0.06 µg/mL (≈ 0.126 µM) in the assay on E. coli (E. coli (20), ESBL VEB-1); 8 µg/mL in the assay on E. coli (setting [5]); 1.5 µg/mL with E. coli (E. coli BOU, OXA-48 + CTX-M-15). In addition, the MIC with E. coli (E. coli COL (2), KPC-2) is 0.5 µg/mL (≈ 1.05 µM); in the assay with E. coli (E. coli DIH, VIM-19), 2 µg/mL (≈ 4.21 µM); against E. coli (E. coli DIN, KPC) it was more than 32 µg/mL; in the assay on E. coli (E. coli FOR, ESBL CTX-M-15), 0.06 µg/mL (≈ 0.126 µM); against E. coli (E. coli HAN (7), OXA-48), 1.5 µg/mL (≈ 3.15 µM); in the assay with E. coli (setting [6]), 0.5 µg/mL. Moreover, the MIC with E. coli (E. coli MAD, IMP-1) is 3 µg/mL (≈ 6.31 µM); against E. coli (E. coli PSP, KPC-2) it was 2 µg/mL (≈ 4.21 µM); in the assay on E. coli (setting [7]), 8 µg/mL. In the assay on P. stuartii, the MICs range came to 0.38 mg/L.

Consider `C[C@@H](O)[C@H]1C(=O)N2C(C(=O)O)=C(SCCN=CN)C[C@H]12` [IMP, imipenem], for which the MICs turned out to be 0.06 µg/mL in the assay on E. coli (setting [1]); 0.06 µg/mL against E. coli (E. coli J53 (29), wild-type); 0.06 µg/mL with E. coli (setting [2]). For the same molecule, the MIC worked out at 6 µg/mL in the assay with E. coli (setting [3]); 6 µg/mL with E. coli (setting [4]); 0.06 µg/mL (≈ 0.2 µM) with E. coli (E. coli (18), ESBL CTX-M-14); 0.06 µg/mL (≈ 0.2 µM) in the assay on E. coli (E. coli (20), ESBL VEB-1); 4 µg/mL in the assay with E. coli (setting [5]); 1 µg/mL in the assay on E. coli (E. coli BOU, OXA-48 + CTX-M-15). Also, the MIC against E. coli (E. coli COL (2), KPC-2) was 4 µg/mL (≈ 13.4 µM); with E. coli (E. coli DIH, VIM-19), 1 µg/mL (≈ 3.34 µM); against E. coli (E. coli DIN, KPC), 16 µg/mL (≈ 53.4 µM); against E. coli (E. coli FOR, ESBL CTX-M-15), 0.06 µg/mL (≈ 0.2 µM); with E. coli (E. coli HAN (7), OXA-48), 0.5 µg/mL (≈ 1.67 µM); with E. coli (setting [6]), 1.5 µg/mL. Further, the minimum inhibitory concentration (MIC) against E. coli (E. coli MAD, IMP-1) was 0.5 µg/mL (≈ 1.67 µM); against E. coli (E. coli PSP, KPC-2), 1 µg/mL (≈ 3.34 µM); in the assay on E. coli (setting [7]), 4 µg/mL; with P. stutzeri (P. stutzeri 13, DIM-1), more than 0.032 µg/mL; in the assay with P. stutzeri (P. stutzeri P511503100, VIM-2), more than 0.032 µg/mL; against P. stutzeri (P. stutzeri PB207, IMP-1), 0.002 µg/mL (≈ 0.00668 µM). Moreover, the MIC was 0.0005 µg/mL (≈ 0.00167 µM) with P. putida (CIP55, P. putida CIP 55-5, wild type, none); more than 0.032 µg/mL with P. putida (P. putida 9335, VIM-2); more than 0.032 µg/mL against P. putida (P. putida NTU 91/99, VIM-2); 0.001 µg/mL (≈ 0.00334 µM) in the assay with P. putida (P. putida NTU 92/99, IMP-1); more than 0.032 µg/mL with P. fluorescens (P. fluorescens COU, VIM-2); more than 0.032 µg/mL with P. fluorescens (P. fluorescens, BIC-1). The MICs range with P. stuartii came out at 12 mg/L.
